What all share (test): NCI tumour cell line growth inhibition, 48 h
The subject of assay [1] is SK-MEL-5 melanoma.
The subject of assay [2] is MALME-3M melanoma.
Assay [3] has as its system HL-60(TB) leukemia.
Assay [4] concerns SR leukemia.
Assay [5] deals with 786-0 renal.
The subject of assay [6] is SK-OV-3 ovarian.
In assay [7] the test system is HOP-62 NSCLC.
Assay [8] has as its system UACC-62 melanoma.
Assay [9] relates to NCI-H522 lung.
For assay [10], the system named is OVCAR-3 ovarian.

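Assay format: 96-well plates, 48-hour exposure. GI50: concentration for 50% inhibition of growth. TGI is the concentration that stops growth completely.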 Where only a bound is given, the exact number is not on record here.

As for `Oc1ccc(Br)cc1C=Nc1ccc(N=Cc2cc(Br)ccc2O)cc1`, the TGI in assay [1], in assay [2], in assay [3], in assay [4], in [5] and in assay [6] was > 100 µM each time.
For `O=c1c2ccccc2nc(-c2ccccc2)n1NC(=S)Nc1ccccc1`, the TGI in assay [1], in [7], in [2], in [8], in assay [3] and in assay [4] was > 100 µM in each case. Besides, the TGI in assay [5], in assay [6] and in assay [9] was > 100 µM in each case.
Take `OCCNCCOc1ccc(/C(=C(/Cl)c2ccccc2)c2ccccc2)cc1`: the TGI in [1] was 19.2 µM; in assay [10] it was 24.8 µM; in assay [7] it was 31.4 µM; in [8] it was 26.7 µM; in assay [3] it was 4.52 µM; in assay [4] it was 12.5 µM. The TGI in assay [5] worked out at 22.2 µM; in assay [6], 10.4 µM; in [9], 28.8 µM.
As for `O=C(N/N=C/c1ccc([N+](=O)[O-])o1)c1ccc(O)cc1`, the GI50 in assay [1] is 1.47 µM; in assay [10] it was 8.33 µM; in assay [7], 6.2 µM; in assay [2] it was 1.11 µM; in assay [8] it was 2.21 µM; in assay [3], 2.48 µM. Moreover, the GI50 in assay [4] was 2.84 µM; in [5], 9.17 µM; in assay [6], 17.5 µM; in [9] it was 6.59 µM. The TGI in assay [1] was 2.88 µM; in [10], 36.1 µM; in assay [7], > 100 µM; in assay [2], 2.56 µM; in [8], 6.93 µM; in assay [3] it was 6.9 µM. Also, the TGI in assay [4] was > 100 µM; in assay [5], 21.4 µM; in [6] it was > 100 µM; in [9] it was 26.7 µM.
For `COc1ccc(/C=C(/c2ccccc2)[N+](=O)[O-])cc1`, the GI50 in assay [1] is 1.82 µM; in [10], 1.36 µM; in assay [7], 1.82 µM; in assay [2], 1.42 µM; in assay [8], 1.5 µM; in [3] it was 2.35 µM. The GI50 in assay [4] is 0.464 µM; in [5], 1.58 µM; in assay [6] it was 2.59 µM; in [9] it was 1.65 µM. For the same molecule, the TGI is 3.29 µM in assay [1]; 2.69 µM in assay [10]; 3.79 µM in assay [7]; 2.94 µM in assay [2]; 3.17 µM in [8]; 6.87 µM in [3]. Also, the TGI was 6.95 µM in [4], 2.96 µM in [5], 6.91 µM in assay [6] and 4.16 µM in assay [9].
For `CCOc1ccccc1NC(=O)C(=O)Cc1nc2ccccc2s1`, the TGI in assay [1], in [10], in assay [7], in assay [2], in [8] and in assay [3] was > 100 µM in each case. The TGI in assay [4], in assay [5], in [6] and in assay [9] was > 100 µM throughout.
Consider `[F][Sn]([F])([c]1ccccc1)[c]1ccccc1`, for which the GI50 is 1.78 µM in assay [1]; 1.59 µM in assay [10]; 2.32 µM in [7]; 1.8 µM in assay [2]; 1.77 µM in assay [8]; 1.01 µM in assay [3]. Also, the GI50 in [4] is 1.18 µM; in assay [5], 1.57 µM; in assay [6], 2.31 µM. For the same molecule, the TGI came to 3.31 µM in assay [1]; 3 µM in [10]; 4.85 µM in assay [7]; 3.33 µM in assay [2]; 5.15 µM in assay [8]; 3.07 µM in [3]. Besides, the TGI was 3.81 µM in assay [4], 2.98 µM in assay [5] and 7.49 µM in assay [6].
For `CC1=C(C(=O)Nc2ccccc2)C(c2ccc(C3C(C(=O)Nc4ccccc4)=C(C)NC(C)=C3C(=O)Nc3ccccc3)cc2)C(C(=O)Nc2ccccc2)=C(C)N1`, the TGI is 6.22 µM in [1]; 14.5 µM in assay [10]; 10.6 µM in [7]; 4.33 µM in [2]; 4.09 µM in [8]; 7.21 µM in [3]. In addition, the TGI is 5.41 µM in [4], 8.92 µM in [5], 26.2 µM in assay [6] and 3.14 µM in [9].
In the case of `O=S1(=O)OCCOS(=O)(=O)C1Cl`, the TGI in assay [1], in assay [10], in [7], in assay [2], in assay [8] and in assay [3] was > 100 µM in each case. Further, the TGI in assay [4], in assay [5], in [6] and in assay [9] was > 100 µM in each case.
In the case of `COc1ccc2c(c1)C(C)Cc1c(ncnc1-n1cnc3cc(C)ccc31)N2C` (configuration not stated), the GI50 in assay [1] is 0.0753 µM; in assay [10], 0.151 µM; in assay [7], 0.0707 µM; in assay [8], 0.0436 µM; in assay [3] it was 0.0956 µM; in [4], 0.0443 µM. The GI50 in [5] was 0.0649 µM; in [6], 0.0591 µM; in assay [9] it was 0.0544 µM. Moreover, the TGI in [1] is 0.589 µM; in assay [10] it was 14.1 µM; in [7] it was 18.2 µM; in assay [8], 18 µM; in assay [3] it was 0.433 µM; in assay [4], 11.1 µM. Besides, the TGI in [5] was 15 µM; in assay [6], 11.7 µM; in [9], 0.325 µM.
As for `N#Cc1ccc(OC(=O)Nc2ccc(Cl)c(Cl)c2)cc1`, the GI50 in assay [1] is 6.03 µM; in assay [10], 3.01 µM; in assay [7] it was 7.5 µM; in [2], 3.81 µM; in assay [8], 3.06 µM; in [3], 5.7 µM. Besides, the results for the GI50 in [4], in assay [5] and in assay [6] were 7.67 µM, 4.83 µM and 5.98 µM, respectively. The TGI in assay [1] came to 19.4 µM; in [10] it was 9.1 µM; in assay [7] it was 60.7 µM; in assay [2] it was 20.6 µM; in assay [8] it was 31.7 µM; in assay [3], 30.9 µM. The values for the TGI in assay [4], in assay [5] and in assay [6] were 93.2 µM, 61.2 µM and 51.2 µM, respectively.
As for `COC(=O)c1cccc2cccc(C(=O)Nc3ccc(Cl)cc3)c12`, the TGI in assay [1] was > 100 µM; in assay [10], > 100 µM; in [7] it was > 100 µM; in assay [2], > 100 µM; in assay [3] it was 22.1 µM; in [4], 50.8 µM. For the same molecule, the TGI is > 100 µM in assay [5], > 100 µM in [6] and > 91 µM in [9].
On to `Cc1cccc(C)c1NC(=O)C(=O)CC(=O)c1cccc([N+](=O)[O-])c1`, for which the TGI in assay [1], in assay [10], in assay [7], in assay [2], in [8] and in assay [3] was > 100 µM each time. For the same molecule, the TGI in assay [4], in assay [5] and in assay [9] was > 100 µM in each case.
`O=C1CSC(c2ccc(-c3nc4ccccc4s3)cc2)=N1`: the GI50 is 19.2 µM in [1]; 16 µM in assay [10]; 43.7 µM in [7]; 18 µM in assay [8]; 18.4 µM in assay [3]; 13.1 µM in assay [4]. The values for the GI50 in assay [5], in [6] and in assay [9] were 77.2 µM, 53.2 µM and 32.9 µM, respectively. Further, the TGI is 41.2 µM in assay [1]; 55 µM in assay [10]; > 100 µM in assay [7]; 45.2 µM in [8]; > 100 µM in assay [3]; 59.8 µM in assay [4]. For the same molecule, the figures for the TGI in assay [5], in assay [6] and in assay [9] were > 100 µM, > 100 µM and 96.2 µM, respectively.
Consider `Clc1ccc(N=CNc2ccc(-c3nc4ccccc4o3)cc2)cc1`, for which the GI50 in assay [1] was 15.4 µM; in [10] it was 11.2 µM; in assay [7], > 100 µM; in assay [8] it was 25.3 µM; in [3] it was 38.5 µM; in [4], 40.6 µM. For the same molecule, the GI50 in [5] is 34.6 µM; in assay [6], 28.6 µM. Further, the TGI was 30.1 µM in assay [1]; 25.3 µM in assay [10]; > 100 µM in [7]; > 100 µM in assay [8]; > 100 µM in assay [3]; > 100 µM in [4]. Also, the TGI in assay [5] and in assay [6] was > 100 µM each time.
Consider `Cc1ccc(Nc2nnc(-c3ccc4c(c3)OCO4)o2)c(C)c1`, for which the TGI in assay [1], in assay [10], in assay [7], in [2], in assay [8] and in assay [4] was > 100 µM in each case. Also, the TGI in assay [5], in [6] and in assay [9] was > 100 µM each time.
On to `CCOC(=O)/C(=C/c1cccc(C#N)c1)N(CC)CC`, for which the TGI in [1], in assay [7], in assay [2], in assay [8], in assay [3] and in assay [4] was > 100 µM in each case. Also, the TGI in assay [5], in [6] and in [9] was > 100 µM each time.
As for `C=C1CC[C@@H](C(C)C)C[C@@H]2[C@H]([C@H](O)C[C@]2(C)O)[C@@]2(C)CC[C@@H]1O2`, the GI50 in [1] is 14.8 µM; in assay [10] it was 14.8 µM; in assay [7] it was 17.7 µM; in assay [2] it was 14.1 µM; in assay [3], 22.6 µM; in assay [4], 14.2 µM. The GI50 in assay [5] is 18.8 µM; in assay [6] it was 20.2 µM; in assay [9] it was 15.2 µM. Further, the TGI in assay [1] turned out to be 28.3 µM; in assay [10], 29.5 µM; in [7] it was 31.6 µM; in [2] it was 28.6 µM; in [3], 57 µM; in [4], 30.9 µM. The TGI in assay [5] stood at 33.4 µM; in [6], 38 µM; in [9], 29.8 µM.
On to `C[C@]12CC[C@@H]3c4ccc(O)c([N+](=O)[O-])c4CC[C@H]3[C@@H]1CC[C@@H]2NS(=O)(=O)c1cccc(Br)c1`, for which the GI50 was 1.67 µM in [1]; 2.43 µM in assay [10]; 1.9 µM in assay [7]; 2.17 µM in assay [2]; 1.6 µM in assay [8]; 2.4 µM in assay [3]. Moreover, the GI50 is 3.09 µM in assay [4], 2.7 µM in assay [5] and 2.94 µM in assay [6]. For the same molecule, the TGI in [1] is 3.11 µM; in [10], 5.64 µM; in assay [7], 3.54 µM; in assay [2], 5.4 µM; in assay [8], 3.69 µM; in assay [3], 6.04 µM. Further, the figures for the TGI in assay [4], in assay [5] and in [6] were 9.41 µM, 7.5 µM and 7.53 µM, respectively.
Consider `CC1=C(C(=O)NNS(=O)(=O)c2ccc(C)cc2)CC(C(=O)NNS(=O)(=O)c2ccc(C)cc2)=C(C)N1`, for which the TGI in assay [10] is > 100 µM; in assay [7], > 100 µM; in assay [2], > 100 µM; in [8], 47.2 µM; in [3] it was > 100 µM; in assay [4], > 100 µM. Further, the TGI in [5], in assay [6] and in assay [9] was > 100 µM throughout.
For the molecule `O=c1nc(-c2ccccc2)cc(-c2ccccc2O)[nH]1`, the TGI in [10], in [7], in [2], in assay [8], in assay [3] and in [4] was > 100 µM in each case. In addition, the TGI in assay [5], in assay [6] and in assay [9] was > 100 µM in each case.
